Assay results: ChEMBL document CHEMBL3885861, “Open TG-GATES”

Species on record: Rattus norvegicus
Assay: Open TG-GATES - Regimen: Single
Type: toxicity, organism-based, Sprague-Dawley
Parameters: regimen Single, gender Male, age 6 weeks
Conditions: in vivo, po, 60 mg/kg, route gavage, dose level Low; for APTT / Bas / Eos / Fbg / Hb / Ht / Lym / MCH / MCHC / MCV / Mono / Neu / PT / Plat / RBC / Ret / WBC: tissue Blood; for KIDNEY_L / KIDNEY_R / KIDNEY_TOTAL: tissue Kidney; for LIVER: tissue Liver; for A/G / ALP / ALT / AST / BUN / CRE / Ca / Cl / DBIL / GLC / IP / K / LDH / Na / PL / RALB / TBIL / TC / TG / TP / gamma-GTP: tissue Plasma

Work on `C[C@](N)(Cc1ccc(O)c(O)c1)C(=O)O` [METHYLDOPA] yielded a TERMINAL_BW (3 h) of 185.6 g, an APTT (3 h) of 17.5 s and a Bas (3 h) of 0%. The Eos (3 h) was 0.6%, the Fbg (3 h) was 265.2 mg/dL and the Hb (3 h) was 12.9 g/dL. The Ht (3 h) was 38.4%, the Lym (3 h) was 79% and the MCH (3 h) was 21.9 pg. It also gave an MCHC (3 h) of 33.5%, an MCV (3 h) of 65.4 fL and a Mono (3 h) of 3.2%. For the same compound, the Neu (3 h) was 16.6%, the PT (3 h) was 12.5 s and the Plat (3 h) was 123.5 x10_4/uL. The RBC (3 h) was 587 x10_4/ul, the Ret (3 h) was 10.7% and the WBC (3 h) was 81.1 x10_2/uL. The KIDNEY_L (3 h) was 0.8 g, the KIDNEY_R (3 h) was 0.8 g and the KIDNEY_TOTAL (3 h) was 1.6 g. The LIVER (3 h) was 7.8 g, the A/G (3 h) was 0.9 and the ALP (3 h) was 1439.4 IU/L. The ALT (3 h) was 54.2 IU/L, the AST (3 h) was 80 IU/L and the BUN (3 h) was 9 mg/dL. For the same compound, the CRE (3 h) was 0.1 mg/dL, the Ca (3 h) was 11.5 mg/dL and the Cl (3 h) was 107.2 meq/L. For the same compound, the DBIL (3 h) was 0.02 mg/dL, the GLC (3 h) was 186 mg/dL and the IP (3 h) was 10.1 mg/dL. It also gave a K (3 h) of 4.4 meq/L, an LDH (3 h) of 60.4 IU/L and a Na (3 h) of 143.8 meq/L. It also gave a PL (3 h) of 142.8 mg/dL, an RALB (3 h) of 2.6 g/dL and a TBIL (3 h) of 0.078 mg/dL. For the same compound, the TC (3 h) was 82.2 mg/dL, the TG (3 h) was 70.2 mg/dL and the TP (3 h) was 5.5 g/dL. For the same compound, the gamma-GTP (3 h) was 1.4 IU/L, the TERMINAL_BW (6 h) was 189.2 g and the APTT (6 h) was 16.7 s. The Bas (6 h) was 0%, the Eos (6 h) was 1% and the Fbg (6 h) was 250.4 mg/dL. The Hb (6 h) was 13 g/dL, the Ht (6 h) was 38.6% and the Lym (6 h) was 78.8%. The MCH (6 h) was 21.7 pg, the MCHC (6 h) was 33.6% and the MCV (6 h) was 64.8 fL. The Mono (6 h) was 3.2%, the Neu (6 h) was 16.2% and the PT (6 h) was 12.4 s. For the same compound, the Plat (6 h) was 117 x10_4/uL, the RBC (6 h) was 596.4 x10_4/ul and the Ret (6 h) was 10.3%. For the same compound, the WBC (6 h) was 64 x10_2/uL, the KIDNEY_L (6 h) was 0.8 g and the KIDNEY_R (6 h) was 0.8 g. It also gave a KIDNEY_TOTAL (6 h) of 1.6 g, an LIVER (6 h) of 7.6 g and an A/G (6 h) of 0.9. It also gave an ALP (6 h) of 1752.4 IU/L, an ALT (6 h) of 50.2 IU/L and an AST (6 h) of 82 IU/L. For the same compound, the BUN (6 h) was 6.4 mg/dL, the CRE (6 h) was 0.2 mg/dL and the Ca (6 h) was 11.2 mg/dL. It also gave a Cl (6 h) of 107.6 meq/L, a DBIL (6 h) of 0.008 mg/dL and a GLC (6 h) of 184 mg/dL. The IP (6 h) was 11.4 mg/dL, the K (6 h) was 4.7 meq/L and the LDH (6 h) was 49.8 IU/L. It also gave a Na (6 h) of 144.2 meq/L, a PL (6 h) of 125.8 mg/dL and an RALB (6 h) of 2.5 g/dL. The TBIL (6 h) was 0.064 mg/dL, the TC (6 h) was 79 mg/dL and the TG (6 h) was 45.6 mg/dL. The TP (6 h) was 5.4 g/dL, the gamma-GTP (6 h) was 1 IU/L and the TERMINAL_BW (9 h) was 187.5 g. The APTT (9 h) was 17.1 s, the Bas (9 h) was 0% and the Eos (9 h) was 0.8%. For the same compound, the Fbg (9 h) was 248.8 mg/dL, the Hb (9 h) was 12.8 g/dL and the Ht (9 h) was 37.7%. For the same compound, the Lym (9 h) was 74.4%, the MCH (9 h) was 22 pg and the MCHC (9 h) was 34%. It also gave an MCV (9 h) of 64.7 fL, a Mono (9 h) of 2.6% and a Neu (9 h) of 21.2%. The PT (9 h) was 12.4 s, the Plat (9 h) was 117.7 x10_4/uL and the RBC (9 h) was 583 x10_4/ul. The Ret (9 h) was 10%, the WBC (9 h) was 65.1 x10_2/uL and the KIDNEY_L (9 h) was 0.8 g. The KIDNEY_R (9 h) was 0.8 g, the KIDNEY_TOTAL (9 h) was 1.6 g and the LIVER (9 h) was 7.1 g. The A/G (9 h) was 0.9, the ALP (9 h) was 1707.4 IU/L and the ALT (9 h) was 47 IU/L. It also gave an AST (9 h) of 75.6 IU/L, a BUN (9 h) of 10.6 mg/dL and a CRE (9 h) of 0.1 mg/dL. The Ca (9 h) was 11 mg/dL, the Cl (9 h) was 107.4 meq/L and the DBIL (9 h) was 0.008 mg/dL. It also gave a GLC (9 h) of 201.2 mg/dL, an IP (9 h) of 10.6 mg/dL and a K (9 h) of 4.5 meq/L. For the same compound, the LDH (9 h) was 51.4 IU/L, the Na (9 h) was 144.2 meq/L and the PL (9 h) was 111.8 mg/dL. For the same compound, the RALB (9 h) was 2.5 g/dL, the TBIL (9 h) was 0.064 mg/dL and the TC (9 h) was 71.2 mg/dL. The TG (9 h) was 32.4 mg/dL, the TP (9 h) was 5.2 g/dL and the gamma-GTP (9 h) was 1 IU/L. For the same compound, the TERMINAL_BW (24 h) was 194.5 g, the APTT (24 h) was 18.6 s and the Bas (24 h) was 0%. The Eos (24 h) was 1.2%, the Fbg (24 h) was 242.4 mg/dL and the Hb (24 h) was 13.1 g/dL. For the same compound, the Ht (24 h) was 38.9%, the Lym (24 h) was 78.4% and the MCH (24 h) was 21.4 pg. For the same compound, the MCHC (24 h) was 33.7%, the MCV (24 h) was 63.6 fL and the Mono (24 h) was 2.8%. It also gave a Neu (24 h) of 17.4%, a PT (24 h) of 12.6 s and a Plat (24 h) of 115.8 x10_4/uL. For the same compound, the RBC (24 h) was 612.6 x10_4/ul, the Ret (24 h) was 9.4% and the WBC (24 h) was 81.6 x10_2/uL. It also gave a KIDNEY_L (24 h) of 0.8 g, a KIDNEY_R (24 h) of 0.8 g and a KIDNEY_TOTAL (24 h) of 1.6 g. The LIVER (24 h) was 9.2 g, the A/G (24 h) was 0.9 and the ALP (24 h) was 1854.6 IU/L. The ALT (24 h) was 52 IU/L, the AST (24 h) was 81.2 IU/L and the BUN (24 h) was 15.6 mg/dL. It also gave a CRE (24 h) of 0.2 mg/dL, a Ca (24 h) of 11.4 mg/dL and a Cl (24 h) of 108 meq/L. It also gave a DBIL (24 h) of 0.016 mg/dL, a GLC (24 h) of 189.8 mg/dL and an IP (24 h) of 8 mg/dL. For the same compound, the K (24 h) was 4.5 meq/L, the LDH (24 h) was 98.4 IU/L and the Na (24 h) was 143.6 meq/L. The PL (24 h) was 136.2 mg/dL, the RALB (24 h) was 2.6 g/dL and the TBIL (24 h) was 0.064 mg/dL. It also gave a TC (24 h) of 71.4 mg/dL, a TG (24 h) of 85.4 mg/dL and a TP (24 h) of 5.5 g/dL. For the same compound, the gamma-GTP (24 h) was 1 IU/L.
